These results are taken from publication PMC10887160, “Phanogracilins A–C, New Bibenzochromenones of Crinoid Phanogenia gracilis (Hartlaub, 1890)” (Biomolecules, 2024).

The target of one assay is T1, Candida albicans CYP51 (Candida albicans, UniProt P10613).
T1 construct: gene ERG11; recombinant, immobilised on CM5 SPR chip
Briefly: surface plasmon resonance. The format is binding.

Another assay concerns the target T2, Homo sapiens CYP51 (Homo sapiens, UniProt Q16850).
T2 construct: gene CYP51A1; recombinant, immobilised on CM5 SPR chip
T2 sequence (Q16850 1-509): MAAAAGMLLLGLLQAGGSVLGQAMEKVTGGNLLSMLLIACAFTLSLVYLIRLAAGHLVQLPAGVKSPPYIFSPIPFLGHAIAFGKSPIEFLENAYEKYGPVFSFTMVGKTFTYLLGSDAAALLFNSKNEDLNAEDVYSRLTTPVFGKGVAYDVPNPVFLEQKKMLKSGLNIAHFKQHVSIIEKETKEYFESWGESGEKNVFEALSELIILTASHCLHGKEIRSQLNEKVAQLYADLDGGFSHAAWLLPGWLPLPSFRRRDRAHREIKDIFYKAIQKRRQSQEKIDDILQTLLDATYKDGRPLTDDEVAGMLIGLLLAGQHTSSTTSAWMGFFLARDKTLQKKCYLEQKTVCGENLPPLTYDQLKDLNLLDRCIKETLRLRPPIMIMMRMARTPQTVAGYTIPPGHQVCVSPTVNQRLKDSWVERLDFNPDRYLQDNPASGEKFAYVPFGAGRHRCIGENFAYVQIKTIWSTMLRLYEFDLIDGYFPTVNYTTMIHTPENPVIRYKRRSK
Briefly: surface plasmon resonance. In kind it is binding. On the technique in general: Surface plasmon resonance follows binding to a sensor surface in real time, without labels.

Assay [1] addresses T3, Mycobacterium tuberculosis CYP125 (Mycobacterium tuberculosis, UniProt P9WPP1). Kind of assay: surface plasmon resonance. In kind it is binding.
Assay [2] has as its target Mycobacterium tuberculosis CYP124 (Mycobacterium tuberculosis, UniProt P9WPP3). Briefly: surface plasmon resonance. In kind it is binding.
Assay [3] deals with Mycobacterium tuberculosis CYP142 (Mycobacterium tuberculosis, UniProt P9WPL5). Kind of assay: surface plasmon resonance. In kind it is binding.
Chain of Mycobacterium tuberculosis CYP142 (P9WPL5 whole entry): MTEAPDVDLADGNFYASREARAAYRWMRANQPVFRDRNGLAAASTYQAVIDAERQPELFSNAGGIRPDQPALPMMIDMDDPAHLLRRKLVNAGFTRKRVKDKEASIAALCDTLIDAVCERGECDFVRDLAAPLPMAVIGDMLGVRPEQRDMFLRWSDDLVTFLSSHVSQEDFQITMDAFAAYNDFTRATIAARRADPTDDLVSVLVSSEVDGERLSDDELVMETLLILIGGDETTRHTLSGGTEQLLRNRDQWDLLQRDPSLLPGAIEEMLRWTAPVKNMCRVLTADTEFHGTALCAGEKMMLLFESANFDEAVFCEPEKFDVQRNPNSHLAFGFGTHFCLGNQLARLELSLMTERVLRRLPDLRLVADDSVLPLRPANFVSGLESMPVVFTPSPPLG
The target in assay [4] is T4, Mycobacterium tuberculosis CYP51 (Mycobacterium tuberculosis, UniProt P9WPP9). Briefly: surface plasmon resonance. The format is binding.
T4 sequence (P9WPP9 whole entry): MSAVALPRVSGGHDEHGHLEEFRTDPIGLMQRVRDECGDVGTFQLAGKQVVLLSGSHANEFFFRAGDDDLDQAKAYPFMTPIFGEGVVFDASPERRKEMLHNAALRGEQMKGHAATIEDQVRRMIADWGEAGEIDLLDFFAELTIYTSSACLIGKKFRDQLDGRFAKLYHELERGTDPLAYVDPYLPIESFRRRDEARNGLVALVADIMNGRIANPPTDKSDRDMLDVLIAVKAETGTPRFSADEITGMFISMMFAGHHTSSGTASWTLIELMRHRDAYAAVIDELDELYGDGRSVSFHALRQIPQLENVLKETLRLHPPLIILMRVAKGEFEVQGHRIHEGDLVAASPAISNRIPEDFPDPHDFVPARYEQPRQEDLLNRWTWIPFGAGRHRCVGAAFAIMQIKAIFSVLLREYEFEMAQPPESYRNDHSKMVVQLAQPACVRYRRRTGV
In assay [5] the target is T5, Candida glabrata CYP51 (Nakaseomyces glabratus, UniProt P50859).
T5 construct: gene ERG11; recombinant, immobilised on CM5 SPR chip
T5 sequence (P50859 whole entry): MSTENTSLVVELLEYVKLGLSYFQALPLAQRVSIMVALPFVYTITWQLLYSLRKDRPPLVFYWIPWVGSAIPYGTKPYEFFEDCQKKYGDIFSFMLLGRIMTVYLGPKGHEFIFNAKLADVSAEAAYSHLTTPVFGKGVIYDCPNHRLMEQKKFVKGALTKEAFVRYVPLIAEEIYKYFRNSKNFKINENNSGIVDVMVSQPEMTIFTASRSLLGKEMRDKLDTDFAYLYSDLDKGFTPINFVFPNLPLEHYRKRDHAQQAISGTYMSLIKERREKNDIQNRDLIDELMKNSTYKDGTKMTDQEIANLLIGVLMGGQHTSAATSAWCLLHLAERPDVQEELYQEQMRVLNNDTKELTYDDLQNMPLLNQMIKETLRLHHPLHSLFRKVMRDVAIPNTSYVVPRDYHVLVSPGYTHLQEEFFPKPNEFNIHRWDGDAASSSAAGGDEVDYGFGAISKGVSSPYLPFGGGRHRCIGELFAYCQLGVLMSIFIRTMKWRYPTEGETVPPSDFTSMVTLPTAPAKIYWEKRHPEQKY
Briefly: surface plasmon resonance. In kind it is binding.

In assay [6] the target is T5, Candida glabrata CYP51. Briefly: biochemical. Also on record: SPR (Biacore, CM5 chip, immobilised CYP), two-state reaction model, global fit KD. Conditions: SPR, two-state model; read-out: KD (мкM). As to the method: (§1) Cytochrome P450 and steroid dehydrogenases are pharmaceutically significant drug targets. However, for most of these targets, there is no effective, selective and safe regulator. In this regard, many laboratories and pharmaceutical companies around the world are working on producing selective modulators of cytochrome P450 and human steroid dehydrogenase. […] Injection of a solution of ligands (studied CYPs) in immobilization buffer (10 mM sodium acetate, pH 4.5 in the case of CYP51 Candida albicans and Candida glabrata; 10 mM sodium acetate, pH 5.0 in the case of all other CYPs) was carried out for 5 min at flow rate 5 µL/min. After this, the chip was incubated for 1 hour in a docked state in the “Stand By” device mode at a measuring cell temperature of 25°C, which led to the hydrolysis of unreacted activated dextran groups. Table S4. The amount of the ligand immobilized on the chip. MT - Mycobacterium tuberculosis, human - Homo sapiens, Calb - Candida albicans, Cglab - Candida glabrata Ligands The amount of the ligand immobilized, RU CYP51_MT 5499 CYP124_MT 3315 CYP125_MT 5730 CYP126_MT 4590 CYP142_MT 2445 CYP51_human 8286 CYP51_Calb 2603 CYP51_Cglab 4888

Assay [7] has as its target T6, Mycobacterium tuberculosis CYP126 (Mycobacterium tuberculosis, UniProt P9WPN9). Kind of assay: biochemical. On the set-up: SPR (Biacore, CM5 chip, immobilised CYP), two-state reaction model, global fit KD. As for the experimental part: as §1
The target of assay [8] is T4, Mycobacterium tuberculosis CYP51. Briefly: biochemical. Also on record: SPR (Biacore, CM5 chip, immobilised CYP), two-state reaction model, global fit KD. As to the method: as §1
The target in assay [9] is T3, Mycobacterium tuberculosis CYP125. Briefly: biochemical. On the set-up: SPR (Biacore, CM5 chip, immobilised CYP), two-state reaction model, global fit KD. As to the method:
as §1

In assay [10] the target is T6, Mycobacterium tuberculosis CYP126. Briefly: surface plasmon resonance. The format is binding.

T3 sequence (P9WPP1 whole entry): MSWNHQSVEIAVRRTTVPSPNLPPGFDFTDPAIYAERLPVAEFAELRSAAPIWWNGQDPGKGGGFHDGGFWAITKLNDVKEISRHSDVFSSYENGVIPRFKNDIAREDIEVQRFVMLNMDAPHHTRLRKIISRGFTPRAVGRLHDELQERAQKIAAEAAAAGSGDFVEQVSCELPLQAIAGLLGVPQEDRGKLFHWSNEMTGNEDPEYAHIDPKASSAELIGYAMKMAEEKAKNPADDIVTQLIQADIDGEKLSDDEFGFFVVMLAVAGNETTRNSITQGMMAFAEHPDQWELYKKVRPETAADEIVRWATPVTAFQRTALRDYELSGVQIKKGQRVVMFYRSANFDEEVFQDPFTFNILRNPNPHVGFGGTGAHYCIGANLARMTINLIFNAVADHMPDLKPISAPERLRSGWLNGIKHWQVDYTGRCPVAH
T6 sequence (P9WPN9 whole entry): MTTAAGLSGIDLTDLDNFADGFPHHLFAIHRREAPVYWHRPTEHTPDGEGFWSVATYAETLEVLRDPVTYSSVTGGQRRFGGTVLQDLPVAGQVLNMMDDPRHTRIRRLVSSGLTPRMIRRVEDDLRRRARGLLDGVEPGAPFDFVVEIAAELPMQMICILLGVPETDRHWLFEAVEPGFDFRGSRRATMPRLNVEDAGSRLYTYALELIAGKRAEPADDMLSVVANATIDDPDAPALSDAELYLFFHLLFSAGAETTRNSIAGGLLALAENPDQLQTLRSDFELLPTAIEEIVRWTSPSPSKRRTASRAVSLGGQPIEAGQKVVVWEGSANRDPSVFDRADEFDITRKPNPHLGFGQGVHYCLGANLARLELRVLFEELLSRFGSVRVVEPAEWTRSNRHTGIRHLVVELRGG
Chain of Mycobacterium tuberculosis CYP124 (P9WPP3 whole entry): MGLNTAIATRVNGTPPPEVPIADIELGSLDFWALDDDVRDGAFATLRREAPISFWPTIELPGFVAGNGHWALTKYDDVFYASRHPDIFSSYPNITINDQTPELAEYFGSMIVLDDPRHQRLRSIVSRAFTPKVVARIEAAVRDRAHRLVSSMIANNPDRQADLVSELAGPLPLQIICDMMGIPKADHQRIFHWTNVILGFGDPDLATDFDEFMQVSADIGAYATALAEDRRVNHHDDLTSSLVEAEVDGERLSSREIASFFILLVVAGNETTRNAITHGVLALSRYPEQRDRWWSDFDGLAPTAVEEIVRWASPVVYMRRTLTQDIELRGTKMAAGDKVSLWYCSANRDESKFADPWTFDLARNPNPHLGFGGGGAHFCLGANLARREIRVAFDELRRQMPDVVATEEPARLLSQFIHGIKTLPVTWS
T1 sequence (P10613 whole entry): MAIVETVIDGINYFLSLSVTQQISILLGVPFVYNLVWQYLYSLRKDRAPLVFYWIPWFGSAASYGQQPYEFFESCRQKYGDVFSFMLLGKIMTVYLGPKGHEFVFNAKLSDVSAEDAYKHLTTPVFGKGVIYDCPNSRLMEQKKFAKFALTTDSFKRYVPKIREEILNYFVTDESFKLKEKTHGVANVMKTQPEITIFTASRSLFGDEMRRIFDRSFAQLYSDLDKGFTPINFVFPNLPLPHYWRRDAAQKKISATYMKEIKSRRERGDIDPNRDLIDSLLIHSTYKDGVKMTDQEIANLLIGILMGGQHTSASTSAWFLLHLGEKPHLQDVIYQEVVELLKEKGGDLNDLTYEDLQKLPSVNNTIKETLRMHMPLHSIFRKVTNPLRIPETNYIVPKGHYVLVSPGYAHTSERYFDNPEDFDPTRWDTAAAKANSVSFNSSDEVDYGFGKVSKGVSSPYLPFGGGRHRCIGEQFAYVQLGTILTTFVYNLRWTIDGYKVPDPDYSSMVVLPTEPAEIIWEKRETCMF

`CCCc1cc(=O)c2c(O)c3c(O)c(-c4c(O)cc(O)c5c(O)c6c(=O)cc(CCC)oc6cc45)c(O)cc3cc2o1` [compound 1, 5,5′,6,6′,8,8′-hexahydroxy-2,2′-dipropyl-4H,4′H-[7,9′-bibenzo[g]chromene]-4,4′-dione]: the Kd (at Candida albicans CYP51; at Homo sapiens CYP51; in assay [1]; in assay [2]; in assay [3]; in [4]) was > 10 µM each time. Moreover, the Kd (usually the constant that tells how readily two partners part at equilibrium) at Candida glabrata CYP51 [5] was > 10 µM; at Candida glabrata CYP51 [6] it was 93.9 µM; in [7], 60.5 µM; in assay [8] it was 67.3 µM; in [9], 55.3 µM; in assay [10], > 10 µM.
